Here are results for 14 compounds from PubChem BioAssay (NCI).

Among the test systems are BT-549 breast; OVCAR-5 ovarian; UO-31 renal; UACC-62 melanoma; MCF7 breast; HL-60(TB) leukemia; HT29 colon; SN12C renal; SK-OV-3 ovarian; MOLT-4 leukemia.
Experiment in all cases: growth of human tumour cells (NCI), 48 h

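Five compound concentrations were applied to cells in 96-well plates for 48 hours; endpoints were derived by simple linear interpolation of the resulting dose-response curve. TGI: concentration producing complete growth inhibition.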

Consider `CCCCCCN(CCCCCC)C(=S)N/N=C(\C)c1ccccn1`, for which the TGI stood at 3.8 µM with BT-549 breast; 5.59 µM with OVCAR-5 ovarian; 3.07 µM in the assay with UO-31 renal; 3.5 µM with UACC-62 melanoma; 3.16 µM in the assay on MCF7 breast; 2.3 µM with HL-60(TB) leukemia. For the same compound, the TGI in the assay on HT29 colon came out at 4.29 µM; with SN12C renal, 2.56 µM; in the assay on SK-OV-3 ovarian, 2.77 µM; with MOLT-4 leukemia, 5.79 µM.

Turning to `[N-]=[N+]=CC(=O)C1CCCN1C(=O)c1ccccc1` (stereo unspecified), the TGI with BT-549 breast, in the assay on OVCAR-5 ovarian, in the assay on UO-31 renal, in the assay on UACC-62 melanoma, in the assay on MCF7 breast and in the assay with HL-60(TB) leukemia was over 10 µM each time. Besides, the TGI in the assay on HT29 colon, in the assay on SN12C renal, in the assay with SK-OV-3 ovarian and in the assay with MOLT-4 leukemia was over 10 µM each time.

Consider `COc1ccc(C)cc1N1C(=O)C2ON(Cc3ccc(CC(N)=O)cc3)C(c3c4ccccc4c(Cl)c4ccccc34)C2C1=O` (stereo unspecified), for which the TGI is 74.5 µM in the assay with BT-549 breast; 58.5 µM with OVCAR-5 ovarian; 48 µM in the assay with UO-31 renal; 45.2 µM in the assay on UACC-62 melanoma; over 100 µM in the assay with MCF7 breast; over 100 µM in the assay on HL-60(TB) leukemia. Moreover, the TGI in the assay with HT29 colon was 40.9 µM; with SN12C renal, 45.7 µM; with SK-OV-3 ovarian, over 100 µM; in the assay on MOLT-4 leukemia, over 100 µM.

For the compound `Cc1ccccc1-c1nc2c(N)nc(N)nc2nc1N`, the TGI with BT-549 breast, with OVCAR-5 ovarian, in the assay with UO-31 renal, in the assay with UACC-62 melanoma, with MCF7 breast and in the assay with HL-60(TB) leukemia was over 100 µM in each case. In addition, the TGI in the assay on HT29 colon, in the assay with SN12C renal, in the assay with SK-OV-3 ovarian and with MOLT-4 leukemia was over 100 µM each time.

As to `O=C(CCc1cc(O)cc(O)c1)NCCc1cc(OCc2ccccc2)cc(OCc2ccccc2)c1`, the TGI in the assay with BT-549 breast came to 35.8 µM; in the assay on OVCAR-5 ovarian, 39.5 µM; with UO-31 renal, 15.3 µM; in the assay on UACC-62 melanoma it was 40.2 µM; in the assay with MCF7 breast, 23.6 µM; in the assay on HL-60(TB) leukemia, 12.2 µM. In addition, the TGI in the assay with HT29 colon was found to be 41.9 µM; in the assay on SN12C renal, 35.9 µM; in the assay with SK-OV-3 ovarian, 31.6 µM; with MOLT-4 leukemia, 22.7 µM.

As to `COc1ccc2nc(NC(=O)/C(C#N)=C/c3ccccc3)sc2c1`, the TGI in the assay on BT-549 breast was over 100 µM; with OVCAR-5 ovarian, over 100 µM; with UO-31 renal, over 100 µM; in the assay on UACC-62 melanoma it was over 100 µM; in the assay with MCF7 breast it was over 100 µM; with HL-60(TB) leukemia it was 36.7 µM. Besides, the TGI in the assay on HT29 colon is over 96.1 µM; with SN12C renal it was over 100 µM; with SK-OV-3 ovarian it was over 100 µM; in the assay on MOLT-4 leukemia, over 100 µM.

Regarding `O=c1oc2ccc3ccccc3c2cc1-c1cn2ccsc2n1`, the TGI in the assay on BT-549 breast was determined as 32.6 µM; in the assay with OVCAR-5 ovarian it was 66.6 µM; in the assay with UO-31 renal it was 31.7 µM; with UACC-62 melanoma it was 34.2 µM; in the assay on MCF7 breast, 19 µM; in the assay with HL-60(TB) leukemia, 51.7 µM. The TGI in the assay on HT29 colon is 37.8 µM; in the assay with SN12C renal, 83.8 µM; with SK-OV-3 ovarian it was over 100 µM; in the assay with MOLT-4 leukemia, 14.9 µM.

As to `O=C(c1ccco1)N(C(=O)N1CCCCC1)c1ccccc1`, the TGI in the assay on BT-549 breast, in the assay on OVCAR-5 ovarian, in the assay with UO-31 renal, in the assay on UACC-62 melanoma, in the assay on MCF7 breast and with HL-60(TB) leukemia was over 100 µM throughout. The TGI in the assay on HT29 colon, in the assay with SN12C renal, with SK-OV-3 ovarian and in the assay on MOLT-4 leukemia was over 100 µM in each case.

With `CCOC(=O)CSc1nc(N)c2c(-c3ccccc3)c3c(nc2n1)CCCC3`, the TGI in the assay with BT-549 breast, with OVCAR-5 ovarian, in the assay with UO-31 renal, in the assay with UACC-62 melanoma, in the assay on MCF7 breast and in the assay on HL-60(TB) leukemia was over 100 µM throughout. Moreover, the TGI in the assay with HT29 colon, with SN12C renal, in the assay on SK-OV-3 ovarian and in the assay on MOLT-4 leukemia was over 100 µM in each case.

As for `Cc1nnc2n(c1=O)CCCN2C`, the TGI with BT-549 breast, in the assay with OVCAR-5 ovarian, with UO-31 renal, in the assay with UACC-62 melanoma, in the assay on MCF7 breast and with HL-60(TB) leukemia was over 100 µM each time. Besides, the TGI with HT29 colon, in the assay on SN12C renal, in the assay with SK-OV-3 ovarian and in the assay on MOLT-4 leukemia was over 100 µM throughout.

Take `COC(=O)/C=C(/C=C1/C(C#N)=C(N)N(c2ccc(Cl)cc2)C1(C)/C(=C\C(=O)OC)C(=O)OC)C(=O)OC` (stereo unspecified): the TGI with BT-549 breast is 30.2 µM; in the assay with OVCAR-5 ovarian, 48.3 µM; in the assay with UO-31 renal, 41.2 µM; in the assay on UACC-62 melanoma it was 27.4 µM; in the assay with MCF7 breast it was 46.2 µM; with HL-60(TB) leukemia, over 100 µM. In addition, the TGI in the assay on HT29 colon was 39 µM; with SN12C renal it was 37.6 µM; in the assay on SK-OV-3 ovarian, over 100 µM; with MOLT-4 leukemia it was 78.9 µM.

In the case of `c1ccc(C2=NC3OC2c2ccccc23)cc1` (stereo unspecified), the TGI in the assay with BT-549 breast, in the assay with OVCAR-5 ovarian, in the assay on UACC-62 melanoma, in the assay on MCF7 breast, in the assay on HL-60(TB) leukemia and in the assay with HT29 colon was over 10 µM in each case. Further, the TGI in the assay on SN12C renal, in the assay with SK-OV-3 ovarian and in the assay on MOLT-4 leukemia was over 10 µM each time.

As to `O=C1C=CC2(O[C@H](c3ccccc3)[C@@H](c3ccccc3)O2)[C@H](Sc2ccccc2O)C1`, the TGI in the assay with BT-549 breast was determined as 1.46 µM; in the assay on OVCAR-5 ovarian, 4.49 µM; with UO-31 renal it was 1.22 µM; in the assay with UACC-62 melanoma it was 2.13 µM; in the assay on MCF7 breast it was 2.44 µM; in the assay with HL-60(TB) leukemia it was 2.82 µM. Also, the TGI in the assay on HT29 colon was determined as 1.45 µM; with SN12C renal it was 0.353 µM; in the assay with SK-OV-3 ovarian it was 11.8 µM.

For the compound `N#Cc1c(-c2ccc([N+](=O)[O-])cc2)cc(-c2ccc(Nc3ccnc4cc(Cl)ccc34)cc2)[nH]c1=O`, the TGI with BT-549 breast, in the assay on OVCAR-5 ovarian, in the assay with UO-31 renal, with UACC-62 melanoma, in the assay on MCF7 breast and in the assay on HL-60(TB) leukemia was over 100 µM each time. In addition, the TGI in the assay with SK-OV-3 ovarian and with MOLT-4 leukemia was over 100 µM in each case.
